How the values were obtained:
[1] = test system: human pulmonary aortic vascular smooth muscle cells (HPASMCs); experiment: FGF12 expression regulation by PDGF-BB in HPASMCs (RT-PCR, immunofluorescence); type: cell-based
Description: (§1) Tissue sections and cells were stained with primary antibody against Ki67 (Dako Inc.), FGF12 (Abcam), phospho-p53 (p-p53; Cell Signaling Technology), α-smooth muscle actin (α-SMA; Sigma), or SM22α (Abcam) and proper fluorescence-labeled secondary antibody. Nuclei were stained with 4′,6-diamidino-2-phenylindole (DAPI). The stained cells were observed using a fluorescence microscope (Nikon). All images shown are representative of independent three experiments.
(§2) Total RNA of cells or tissues for reverse transcription-polymerase chain reaction (RT-PCR) was isolated with TRIzol reagent (Invitrogen). Next, cDNA was synthesized from total RNA using primers specific to corresponding genes and a Superscript first-strand synthesis kit (Invitrogen), and was amplified by PCR (30-35 cycles). Glyceraldehyde-3-phosphate dehydrogenase (GAPDH) was used as a loading control. Real-time PCR was performed using a SYBR-Green PCR master mix (Applied biosystems) and the StepOnePlus™ Real Time PCR System (Applied Biosystems). Data were analyzed according to ΔΔCt method, and gene expression values were normalized to GAPDH expression.
(§3) Human aortic vascular smooth muscle cells (HASMCs; ScienCell Research Laboratories) and human pulmonary […] vascular smooth muscle cell (HPASMC, ScienCell Research laboratories) were cultured in smooth muscle growth medium (SMGM, ScienCell Research Laboratories) or basal medium. For a compound inhibitor experiment, HASMCs and HPASMCs were pre-treated with pifithrin (10 μM; Sigma), LY294002 (20 μM; Cell Signaling Technology), PD98059 (50 μM; Cell Signaling Technology), U0 126 (10 μM; Cell Signaling Technology), SB203580 (50 μM; Cell Signaling Technology), and BIRB796 (10 μM; Merck) at 37° C. for 24 hours.

FGF12 promoter = experiment: Luciferase reporter assay with FGF12 promoter; type: cell-based, human; settings: HASMCs, pGL3-FGF12 reporter, PDGF-BB 50 ng/ml versus removed
Experimental: For the luciferase reporter assay, approximately 2000 base pairs of the FGF12 5′-UTR were cloned into a firefly luciferase reporter vector (pGL3-phFGF12). HASMCs were co-transfected with an empty vector (pGL3-basic) or pGL3-phFGF12, together with a constitutively active β-galactosidase reporter plasmid as a transfection control. After 48 hours, luciferase and galactosidase activities were analyzed using a luciferase and galactosidase assay kit (Stratagene). The luciferase activity was normalized to galactosidase activity, and expressed as a relative value compared with the luciferase activity measured in HASMCs transfected with pGL3-basic and cultured in a medium containing PDGF-BB (50 ng/ml) for 1 day.

[2] = test system: human aortic smooth muscle cells (HASMCs); experiment: FGF12 expression regulation by PDGF-BB in HASMCs (RT-PCR, immunofluorescence); type: cell-based
Description: as §1, §2, §3

HPASMCs = experiment: Cell proliferation by Ki67 staining in HPASMCs; type: cell-based, human; settings: pifithrin 10 μM
Description: as §1
(§4) For cell proliferation analysis, cells were inoculated triplicate in a 24-well plate, and cultured in the basal medium supplemented with 50 ng/ml platelet-derived growth factor-BB (PDGF-BB; R&D systems), 100 ng/ml Bone morphogenic protein-4 (BMP-4; R&D systems), or 10% FBS. Cell proliferation was determined by an MTS assay (MTS assay; Promega) or immunofluorescence assay using anti-Ki67 IgG (Dako). Five representative color images were randomly acquired from each sample for quantifying Ki67 stained cells (Ki67+ cells), and the percentage of Ki67+ cells was determined through dividing the mean value of Ki67+ cells by the total number of cells on each image.

HASMCs = experiment: Cell proliferation by Ki67 staining in HASMCs; type: cell-based, human; settings: pifithrin 10 μM
Description: as §1, §4

HPASMC = experiment: FGF12 expression regulation by BMP in HPASMC (RT-PCR, Western blotting); type: cell-based, human; settings: for FGF12 protein expression / protein expression of vascular smooth muscle cell differentiation markers (α-SMA, SM22α): 30 ng/ml, 48 hours, western blotting; for level of FGF12 mRNA: 48 hours after addition to basal medium (10 and 30 ng/ml), RT-PCR
Experimental: as §2
For transfection for FGF12 overexpression, an expression vector (pCMV6-Entry having the c-terminal labeled Myc-DDK) encoding a rat homologous gene (Origene) having 100% amino acid homology with human FGF12 cDNA was used. HASMCs and HPASMCs were transfected with pCMV6-FGF12(pFGF12) or pCMV6-Entry (pEntry) control vector using Lipofectamien™ 2000 according to the protocol of the manufacturer, and selected using G418 (Sigma) for 2 weeks. For the inhibition of FGF12, p53 or BMPR2 expression, subconfluent HASMCs were transfected with specific or non-specific small interfering RNA (siRNA; GE Healthcare) using Lipofectamien™ 2000.
Cell and tissue lysates were separated by SDS-PAGE, and protein bands were transferred on blots. Blots were reacted with appropriate primary antibodies such as FGF12 (Abcam), p-p53 (Cell Signaling Technology), p53 (BD Biosciences), α-SMA (Sigma), SM22α (Abcam), SM-MHC, or β-actin (Santa Cruz biotechnology), followed by treatment with horseradish peroxidase-conjugated secondary antibodies.

[3] = 3 hours after PDGF-BB (50 ng/ml) added to basal medium, RT-PCR
[4] = after 24 hours of PDGF-BB stimulation

In the case of “PDGF-BB: platelet-derived growth factor subunit B homodimer, vascular smooth muscle cell mitogen”, the “mRNA level of FGF12” value [1, 3] is reported as “greatly decreased”, the “expression level of FGF12 (immunofluorescent experiment)” value ([1]; PDGF-BB 50 ng/ml, one day) is reported as “decreased” and the “mRNA level of FGF12” value [1, 4] is reported as “further decreased”. For the same molecule, the “mRNA level of the contractible gene SM-HMC” value [1, 4] was “decreased”, the “transcriptional activity of the FGF12 promoter” value (FGF12 promoter) was “inhibits the expression of FGF12 at a transcriptional level” and the “mRNA level of FGF12” value [2, 3] was “greatly decreased”. The “expression level of FGF12 (immunofluorescent experiment)” value ([2]; PDGF-BB 50 ng/ml, one day) was “decreased”, the “mRNA level of FGF12” value [2, 4] was “further decreased” and the “mRNA level of the contractible gene SM-HMC” value [2, 4] was “decreased”. For the same molecule, the “mRNA level of the proliferation marker gene CDK1” value [2, 4] was “increased”.

pifithrin was tested, and the “cell proliferation of Ad-FGF12-transfected cells” value (HPASMCs) was “significantly improving the cell proliferation” and the “cell proliferation of Ad-FGF12-transfected cells” value (HASMCs) was “significantly improving the cell proliferation”.

B1: BMP-4: Bone morphogenic protein-4 (protein)
chain: SPKHHSQRARKKNKNCRRHSLYVDFSDVGWNDWIVAPPGYQAFYCHGDCPFPLADHLNSTNHAIVQTLVNSVNSSIPKACCVPTELSAISMLYLDEYDKVVLKNYQEMVVEGCGCR
B1 was tested, and the FGF12 protein expression (HPASMC) was “increased”, the “protein expression of vascular smooth muscle cell differentiation markers (α-SMA, SM22α)” value (HPASMC) was “increased” and the “level of FGF12 mRNA” value (HPASMC) was “significantly increased”.

B2: BMP-7: bone morphogenetic protein, promotes differentiation and inhibits proliferation of vascular smooth muscle cells (protein, UniProt P18075 293-431, looked up)
Bone morphogenetic protein 7: STGSKQRSQNRSKTPKNQEALRMANVAENSSSDQRQACKKHELYVSFRDLGWQDWIIAPEGYAAYYCEGECAFPLNSYMNATNHAIVQTLVHFINPETVPKPCCAPTQLNAISVLYFDDSSNVILKKYRNMVVRACGCH
With B2 the FGF12 protein expression (HPASMC) was “increased”, the “protein expression of vascular smooth muscle cell differentiation markers (α-SMA, SM22α)” value (HPASMC) was “increased” and the “level of FGF12 mRNA” value (HPASMC) was “significantly increased”.
